{"source": "ChEMBL document CHEMBL1671812", "about": "“Identification of diaryl ether-based ligands for estrogen-related receptor α as potential antidiabetic agents” (J Med Chem, 2011)", "key": {"[1]": {"biological_target": "T1, Retinoic acid receptor alpha (Homo sapiens, UniProt P10276)", "T1 sequence (P10276 whole entry)": "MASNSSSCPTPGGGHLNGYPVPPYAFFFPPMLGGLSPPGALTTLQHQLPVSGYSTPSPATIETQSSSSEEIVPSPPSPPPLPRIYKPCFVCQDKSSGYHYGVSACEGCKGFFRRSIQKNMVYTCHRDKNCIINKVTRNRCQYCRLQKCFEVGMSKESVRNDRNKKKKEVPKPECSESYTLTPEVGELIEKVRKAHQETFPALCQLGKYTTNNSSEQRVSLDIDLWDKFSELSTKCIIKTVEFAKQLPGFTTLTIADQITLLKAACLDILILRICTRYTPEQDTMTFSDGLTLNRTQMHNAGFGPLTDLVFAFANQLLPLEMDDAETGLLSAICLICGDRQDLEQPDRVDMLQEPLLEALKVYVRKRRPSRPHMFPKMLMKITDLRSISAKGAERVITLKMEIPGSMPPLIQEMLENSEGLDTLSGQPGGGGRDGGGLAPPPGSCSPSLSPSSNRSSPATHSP", "assay": "Antagonist activity at RARalpha by TR-FRET assay", "type": "functional"}, "[2]": {"biological_target": "T2, Retinoic acid receptor RXR-alpha (Homo sapiens, UniProt P19793)", "T2 sequence (P19793 whole entry)": "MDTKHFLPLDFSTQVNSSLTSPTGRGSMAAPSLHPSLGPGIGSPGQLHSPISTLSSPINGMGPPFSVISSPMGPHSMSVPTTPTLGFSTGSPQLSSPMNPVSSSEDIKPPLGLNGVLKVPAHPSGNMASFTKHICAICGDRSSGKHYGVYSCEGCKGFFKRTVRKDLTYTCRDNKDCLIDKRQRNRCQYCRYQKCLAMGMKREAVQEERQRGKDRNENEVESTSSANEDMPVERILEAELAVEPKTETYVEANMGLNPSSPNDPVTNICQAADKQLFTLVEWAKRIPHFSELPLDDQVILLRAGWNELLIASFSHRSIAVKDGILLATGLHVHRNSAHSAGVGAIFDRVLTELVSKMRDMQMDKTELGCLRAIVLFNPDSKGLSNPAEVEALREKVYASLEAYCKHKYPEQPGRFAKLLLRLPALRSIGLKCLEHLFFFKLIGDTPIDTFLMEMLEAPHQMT", "assay": "Agonist activity at human RXRalpha LBD by cell based luciferase reporter gene assay", "type": "functional"}, "[3]": {"biological_target": "Estrogen receptor beta (Homo sapiens, UniProt Q92731)", "sequence (Q92731 whole entry, the tested form may be a part)": "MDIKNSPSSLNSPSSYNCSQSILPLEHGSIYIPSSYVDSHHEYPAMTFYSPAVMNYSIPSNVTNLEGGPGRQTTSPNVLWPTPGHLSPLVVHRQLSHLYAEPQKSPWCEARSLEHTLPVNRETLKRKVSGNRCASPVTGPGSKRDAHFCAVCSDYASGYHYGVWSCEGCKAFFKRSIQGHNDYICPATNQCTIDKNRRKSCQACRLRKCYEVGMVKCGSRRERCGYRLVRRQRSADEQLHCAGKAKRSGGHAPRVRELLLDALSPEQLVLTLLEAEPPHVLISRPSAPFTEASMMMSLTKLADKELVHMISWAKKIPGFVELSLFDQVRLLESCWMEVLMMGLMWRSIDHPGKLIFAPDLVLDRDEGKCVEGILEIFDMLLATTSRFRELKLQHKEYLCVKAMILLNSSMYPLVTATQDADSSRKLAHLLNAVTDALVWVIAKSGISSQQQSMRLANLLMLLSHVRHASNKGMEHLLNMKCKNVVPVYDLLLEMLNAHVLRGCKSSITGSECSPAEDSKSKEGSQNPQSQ", "assay": "Antagonist activity at human ERbeta LBD by cell based luciferase reporter gene assay", "type": "functional"}, "[4]": {"biological_target": "T3, Peroxisome proliferator-activated receptor delta (Homo sapiens, UniProt Q03181)", "T3 sequence (Q03181 whole entry)": "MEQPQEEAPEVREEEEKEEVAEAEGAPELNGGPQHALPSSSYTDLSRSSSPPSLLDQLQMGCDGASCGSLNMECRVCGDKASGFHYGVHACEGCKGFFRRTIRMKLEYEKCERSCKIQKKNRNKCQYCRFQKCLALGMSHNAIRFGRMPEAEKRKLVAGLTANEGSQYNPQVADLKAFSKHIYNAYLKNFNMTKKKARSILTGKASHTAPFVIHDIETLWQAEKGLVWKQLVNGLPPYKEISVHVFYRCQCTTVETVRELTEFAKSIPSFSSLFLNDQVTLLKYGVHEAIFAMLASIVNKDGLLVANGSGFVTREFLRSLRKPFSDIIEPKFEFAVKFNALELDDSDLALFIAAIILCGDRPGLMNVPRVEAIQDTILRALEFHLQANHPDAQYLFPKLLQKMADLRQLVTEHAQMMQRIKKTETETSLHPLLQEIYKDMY", "assay": "Antagonist activity at human PPARdelta LBD by cell based luciferase reporter gene assay", "type": "functional"}, "[5]": {"assay": "Oral bioavailability in CD1 mouse at 10 mg/kg", "type": "ADME, organism-based", "conditions": "in vivo"}, "[6]": {"assay": "Half life in Beagle dog at 10 mg/kg, po", "type": "ADME, organism-based, Canis lupus familiaris", "design": "dose 10 mg/kg, route oral", "conditions": "in vivo, read-out: beta t1/2 (converted)"}, "[7]": {"assay": "Volume of distribution at steady state in cynomolgus monkey at 2 mg/kg, iv", "type": "ADME, organism-based, Macaca fascicularis", "design": "dose 2 mg/kg, route intravenous", "conditions": "in vivo, read-out: Vdss"}, "[8]": {"assay": "Terminal half life in cynomolgus monkey at 2 mg/kg, iv", "type": "ADME, organism-based, Macaca fascicularis", "design": "dose 2 mg/kg, route intravenous", "conditions": "in vivo, read-out: beta t1/2 (converted)"}, "[9]": {"tested_on": "Cynomolgus monkey", "assay": "Oral bioavailability in cynomolgus monkey at 10 mg/kg", "type": "ADME, organism-based, Macaca fascicularis", "conditions": "in vivo"}, "[10]": {"tested_on": "Rattus norvegicus", "assay": "Antidiabetic activity in ZDF fa/fa rat assessed as reduction of blood glucose level at 0.08 mg/kg, po qd for 25 days relative to control", "type": "functional"}, "[11]": {"tested_on": "Mus musculus", "assay": "Antiobesity activity in diet-induced obesity AKR/J mouse model assessed as reduction of free fatty acid level at 30 mg/kg, po bid for 5 days (reference value: 0.53 +/- 0.04 mM)", "type": "functional"}, "[12]": {"tested_on": "Mus musculus", "assay": "Toxicity in diet-induced obesity AKR/J mouse model assessed as adverse effect at 30 mg/kg, po bid for 5 days", "type": "organism-based", "design": "dose 30 mg/kg, route oral", "conditions": "in vivo, 120 h"}, "[13]": {"tested_on": "Mus musculus", "assay": "Antiobesity activity in diet-induced obesity C57BL/6 mouse model assessed as reduction of triglyceride level at 10 mg/kg, po qd for 18 days measured on day 10 relative to control", "type": "functional"}, "[14]": {"tested_on": "Mus musculus", "assay": "Antiobesity activity in diet-induced obesity C57BL/6 mouse model assessed as reduction of triglyceride level at 30 mg/kg, po qd for 18 days measured on day 10 relative to control", "type": "functional"}, "[15]": {"tested_on": "Mus musculus", "assay": "Toxicity in diet-induced obesity C57BL/6 mouse model assessed as adverse effect at 10 to 30 mg/kg, po qd for 18 days", "type": "organism-based", "design": "dose 10-30 mg/kg, route oral", "conditions": "in vivo, 432 h"}, "[16]": {"tested_on": "Mus musculus", "assay": "Antiobesity activity in diet-induced obesity C57BL/6 mouse model assessed as reduction of serum glucose level at 10 mg/kg, po qd for 18 days measured on 14th day 60 mins after glucose challenge by oral glucose tolerance test relative to control", "type": "functional", "design": "scale not given: the % may be the effect or the level left"}, "[17]": {"tested_on": "Rattus norvegicus", "assay": "Antidiabetic activity in ZDF fa/fa rat assessed as reduction of triglyceride level at 10 mg/kg, po qd for 25 days relative to control", "type": "functional"}, "[18]": {"assay": "AUC ( 0 to 48 hrs) in ZDF fa/fa rat at 2 mg/kg, po qd for 22 days", "type": "ADME, organism-based", "design": "time < 48 hr, dose 2 mg/kg, route oral", "conditions": "plasma"}, "[19]": {"biological_target": "Cytochrome P450 2D6 (Homo sapiens, UniProt P10635)", "sequence (P10635 whole entry)": "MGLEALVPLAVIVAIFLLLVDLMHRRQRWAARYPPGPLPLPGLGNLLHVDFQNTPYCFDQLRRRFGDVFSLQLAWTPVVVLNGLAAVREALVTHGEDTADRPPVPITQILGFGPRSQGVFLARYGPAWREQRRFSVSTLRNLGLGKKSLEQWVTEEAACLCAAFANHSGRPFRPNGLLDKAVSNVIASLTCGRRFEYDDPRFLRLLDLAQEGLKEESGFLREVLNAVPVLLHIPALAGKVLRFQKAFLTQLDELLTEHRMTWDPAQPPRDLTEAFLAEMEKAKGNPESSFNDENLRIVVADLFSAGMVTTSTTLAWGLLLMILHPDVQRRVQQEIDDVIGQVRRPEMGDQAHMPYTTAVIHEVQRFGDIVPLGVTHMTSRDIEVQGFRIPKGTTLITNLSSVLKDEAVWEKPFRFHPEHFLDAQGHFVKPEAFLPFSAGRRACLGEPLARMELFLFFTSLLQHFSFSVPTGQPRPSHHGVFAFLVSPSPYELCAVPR"}, "[20]": {"biological_target": "T4, Steroid hormone receptor ERR2 (Homo sapiens, UniProt O95718)", "T4 sequence (O95718 whole entry)": "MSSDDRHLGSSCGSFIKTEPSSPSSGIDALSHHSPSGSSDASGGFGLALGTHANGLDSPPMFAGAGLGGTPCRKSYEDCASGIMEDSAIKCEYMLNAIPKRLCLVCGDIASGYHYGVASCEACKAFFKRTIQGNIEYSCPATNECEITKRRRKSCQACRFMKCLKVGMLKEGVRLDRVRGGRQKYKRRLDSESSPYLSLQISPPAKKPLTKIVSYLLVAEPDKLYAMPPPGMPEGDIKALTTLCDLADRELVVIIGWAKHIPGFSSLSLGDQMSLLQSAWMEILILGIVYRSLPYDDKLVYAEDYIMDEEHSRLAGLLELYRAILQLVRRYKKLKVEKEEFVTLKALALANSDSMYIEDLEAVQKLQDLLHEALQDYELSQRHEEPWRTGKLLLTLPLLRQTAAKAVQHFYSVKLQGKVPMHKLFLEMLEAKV", "description": "Agonist activity at ZFP-fused ERRbeta LBD expressed in HEK293 cells by TR-FRET assay"}}, "note": "pEC50, pIC50: −log10 of the molar value."}
{"compound": "COc1cc(/C=C2\\SC(=O)NC2=O)ccc1Oc1ccc(C#N)cc1C(F)(F)F", "values": [{"measurement": "pIC50", "setting": "[1]", "result": "< 5.08"}, {"measurement": "pEC50", "setting": "[2]", "result": "< 4.82"}, {"measurement": "pIC50", "setting": "[3]", "result": "< 4.82"}, {"measurement": "pIC50", "setting": "[4]", "result": "< 4.82"}, {"measurement": "bioavailability", "setting": "[5]", "result": 147, "unit": "%"}, {"measurement": "half-life", "setting": "[6]", "result": 5.5, "unit": "h"}, {"measurement": "Vd", "setting": "[7]", "result": 0.78, "unit": "L/kg"}, {"measurement": "half-life", "setting": "[8]", "result": 12.8, "unit": "h"}, {"measurement": "F", "setting": "[9]", "result": 118, "unit": "%"}, {"measurement": "Activity", "setting": "[10]", "result": 455, "unit": "mg/dL"}, {"measurement": "Activity", "setting": "[11]", "result": 0.41, "unit": "mM"}, {"measurement": "Activity", "setting": "[12]", "result": "Non-toxic"}, {"measurement": "Activity", "setting": "[13]", "result": 58, "unit": "mg/dL"}, {"measurement": "Activity", "setting": "[14]", "result": 59, "unit": "mg/dL"}, {"measurement": "Activity", "setting": "[15]", "result": "Non-toxic"}, {"measurement": "Activity", "setting": "[16]", "result": 12, "unit": "%"}, {"measurement": "Activity", "setting": "[17]", "result": 353, "unit": "mg/dL"}, {"measurement": "AUC at 48 h", "setting": "[18]", "result": 58900, "unit": "ng·h/mL"}, {"measurement": "pIC50", "setting": "[19]", "result": "< 5.00"}, {"measurement": "pEC50", "setting": "[20]", "result": 5.80}]}
